Measured values as given in ChEMBL document CHEMBL4507316 (2021).

How the values were obtained:
[1] = target: Calcium/calmodulin-dependent protein kinase type II subunit alpha (Homo sapiens) (UniProt Q9UQM7); assay: CAMK2A ProQinase selectivity panel; conditions: Compound concentration 1.0 uM
[2] = target: Ephrin type-A receptor 8 (Homo sapiens) (UniProt P29322); assay: EPHA8 ProQinase selectivity panel; conditions: Compound concentration 1.0 uM
[3] = target: Dual specificity tyrosine-phosphorylation-regulated kinase 1B (Homo sapiens) (UniProt Q9Y463); assay: DYRK1B ProQinase selectivity panel; conditions: Compound concentration 1.0 uM
[4] = target: Dual specificity mitogen-activated protein kinase kinase 2 (Homo sapiens) (UniProt P36507); assay: MEK2 ProQinase selectivity panel; conditions: Compound concentration 1.0 uM
[5] = target: Alpha-2C adrenergic receptor (Homo sapiens) (UniProt P18825); conditions: Compound concentration 10.0 uM
[6] = target: Muscarinic acetylcholine receptor M4 (Homo sapiens) (UniProt P08173); conditions: Compound concentration 10.0 uM
[7] = target: Activated CDC42 kinase 1 (Homo sapiens) (UniProt Q07912); assay: ACK1 ProQinase selectivity panel; conditions: Compound concentration 1.0 uM
[8] = target: CDK7/Cyclin H/MNAT1 (Homo sapiens) (UniProt P51946+P50613+P51948); assay: CDK7/CycH/MAT1 ProQinase selectivity panel; format: protein-complex assay; conditions: Compound concentration 1.0 uM
[9] = target: 5-hydroxytryptamine receptor 5A (Homo sapiens) (UniProt P47898); conditions: Compound concentration 10.0 uM
[10] = target: Mitogen-activated protein kinase kinase kinase 8 (Homo sapiens) (UniProt P41279); assay: COT ProQinase selectivity panel; conditions: Compound concentration 1.0 uM
[11] = target: MAP kinase-interacting serine/threonine-protein kinase 1 (Homo sapiens) (UniProt Q9BUB5); assay: MKNK1 ProQinase selectivity panel; conditions: Compound concentration 1.0 uM
[12] = target: Protein kinase C iota type (Homo sapiens) (UniProt P41743); assay: PKC-iota ProQinase selectivity panel; conditions: Compound concentration 1.0 uM
[13] = target: Mitogen-activated protein kinase 11 (Homo sapiens, UniProt Q15759); assay: p38-beta ProQinase selectivity panel; conditions: Compound concentration 1.0 uM
[14] = target: Wee1-like protein kinase (Homo sapiens) (UniProt P30291); assay: WEE1 ProQinase selectivity panel; conditions: Compound concentration 1.0 uM
[15] = test system: Proto-oncogene tyrosine-protein kinase receptor Ret (Homo sapiens), P07949 [V804L]; assay: RET V804L ProQinase selectivity panel; conditions: Compound concentration 1.0 uM
[16] = target: Serine/threonine-protein kinase PAK 4 (Homo sapiens) (UniProt O96013); assay: PAK4 ProQinase selectivity panel; conditions: Compound concentration 1.0 uM
[17] = target: Histamine H3 receptor (Homo sapiens) (UniProt Q9Y5N1); conditions: Compound concentration 10.0 uM
[18] = target: Activin receptor type-1-like (Homo sapiens) (UniProt P37023); assay: ACV-RL1 ProQinase selectivity panel; conditions: Compound concentration 1.0 uM
[19] = target: Ephrin type-A receptor 4 (Homo sapiens) (UniProt P54764); assay: EPHA4 ProQinase selectivity panel; conditions: Compound concentration 1.0 uM
[20] = target: Protein kinase C delta type (Homo sapiens) (UniProt Q05655); assay: PKC-delta ProQinase selectivity panel; conditions: Compound concentration 1.0 uM
[21] = test system: Epidermal growth factor receptor (Homo sapiens), P00533 [L858R]; assay: EGF-R L858R ProQinase selectivity panel; conditions: Compound concentration 1.0 uM
[22] = target: Cyclin-dependent kinase 16 (Homo sapiens) (UniProt Q00536); assay: PCTAIRE1 ProQinase selectivity panel; conditions: Compound concentration 1.0 uM
[23] = target: Calcium/calmodulin-dependent protein kinase kinase 2 (Homo sapiens) (UniProt Q96RR4); assay: CAMKK2 ProQinase selectivity panel; conditions: Compound concentration 1.0 uM
[24] = target: Maternal embryonic leucine zipper kinase (Homo sapiens) (UniProt Q14680); assay: MELK ProQinase selectivity panel; conditions: Compound concentration 1.0 uM
[25] = target: Sodium-dependent serotonin transporter (Homo sapiens) (UniProt P31645); conditions: Compound concentration 10.0 uM
[26] = target: Myosin light chain kinase, smooth muscle (Homo sapiens) (UniProt Q15746); assay: MYLK ProQinase selectivity panel; conditions: Compound concentration 1.0 uM
[27] = target: 5-hydroxytryptamine receptor 1B (Homo sapiens) (UniProt P28222); conditions: Compound concentration 10.0 uM
[28] = target: Death-associated protein kinase 1 (Homo sapiens) (UniProt P53355); assay: DAPK1 ProQinase selectivity panel; conditions: Compound concentration 1.0 uM
[29] = target: Insulin receptor (Homo sapiens) (UniProt P06213); assay: INS-R ProQinase selectivity panel; conditions: Compound concentration 1.0 uM
[30] = target: Tyrosine-protein kinase Fyn (Homo sapiens) (UniProt P06241); assay: FYN ProQinase selectivity panel; conditions: Compound concentration 1.0 uM
[31] = target: Mitogen-activated protein kinase kinase kinase kinase 2 (Homo sapiens) (UniProt Q12851); assay: MAP4K2 ProQinase selectivity panel; conditions: Compound concentration 1.0 uM
[32] = target: MAP kinase-interacting serine/threonine-protein kinase 2 (Homo sapiens) (UniProt Q9HBH9); assay: MKNK2 ProQinase selectivity panel; conditions: Compound concentration 1.0 uM
[33] = target: Protein-tyrosine kinase 6 (Homo sapiens) (UniProt Q13882); assay: BRK ProQinase selectivity panel; conditions: Compound concentration 1.0 uM
[34] = target: cAMP-dependent protein kinase catalytic subunit PRKX (Homo sapiens) (UniProt P51817); assay: PRKX ProQinase selectivity panel; conditions: Compound concentration 1.0 uM
[35] = target: Dual specificity protein kinase CLK4 (Homo sapiens) (UniProt Q9HAZ1); assay: CLK4 ProQinase selectivity panel; conditions: Compound concentration 1.0 uM
[36] = target: Epidermal growth factor receptor (Homo sapiens) (UniProt P00533); assay: EGF-R wt ProQinase selectivity panel; conditions: Compound concentration 1.0 uM
[37] = test system: Epidermal growth factor receptor (Homo sapiens), P00533 [G719C]; assay: EGF-R G719C ProQinase selectivity panel; conditions: Compound concentration 1.0 uM
[38] = target: Tyrosine-protein kinase JAK1 (Homo sapiens) (UniProt P23458); assay: JAK1 ProQinase selectivity panel; conditions: Compound concentration 1.0 uM
[39] = target: Macrophage colony-stimulating factor 1 receptor (Homo sapiens) (UniProt P07333); assay: CSF1-R ProQinase selectivity panel; conditions: Compound concentration 1.0 uM
[40] = target: Tyrosine-protein kinase BTK (Homo sapiens) (UniProt Q06187); assay: BTK ProQinase selectivity panel; conditions: Compound concentration 1.0 uM
[41] = target: Casein kinase I isoform gamma-1 (Homo sapiens) (UniProt Q9HCP0); assay: CK1-gamma1 ProQinase selectivity panel; conditions: Compound concentration 1.0 uM
[42] = target: PAS domain-containing serine/threonine-protein kinase (Homo sapiens) (UniProt Q96RG2); assay: PASK ProQinase selectivity panel; conditions: Compound concentration 1.0 uM
[43] = target: Interferon-induced, double-stranded RNA-activated protein kinase (Homo sapiens) (UniProt P19525); assay: EIF2AK2 ProQinase selectivity panel; conditions: Compound concentration 1.0 uM
[44] = target: Mitogen-activated protein kinase kinase kinase kinase 4 (Homo sapiens) (UniProt O95819); assay: MAP4K4 ProQinase selectivity panel; conditions: Compound concentration 1.0 uM
[45] = test system: Mast/stem cell growth factor receptor Kit (Homo sapiens), P10721 [T670I]; assay: KIT T670I ProQinase selectivity panel; conditions: Compound concentration 1.0 uM
[46] = target: Muscarinic acetylcholine receptor M3 (Homo sapiens) (UniProt P20309); conditions: Compound concentration 10.0 uM
[47] = target: Protein kinase C eta type (Homo sapiens) (UniProt P24723); assay: PKC-eta ProQinase selectivity panel; conditions: Compound concentration 1.0 uM
[48] = target: Inhibitor of nuclear factor kappa-B kinase subunit epsilon (Homo sapiens) (UniProt Q14164); assay: IKK-epsilon ProQinase selectivity panel; conditions: Compound concentration 1.0 uM
[49] = test system: Hepatocyte growth factor receptor (Homo sapiens), P08581 [Y1230A]; assay: MET Y1230A ProQinase selectivity panel; conditions: Compound concentration 1.0 uM
Sequence of Hepatocyte growth factor receptor (Homo sapiens), P08581 [Y1230A] (P08581 whole entry Y1230A): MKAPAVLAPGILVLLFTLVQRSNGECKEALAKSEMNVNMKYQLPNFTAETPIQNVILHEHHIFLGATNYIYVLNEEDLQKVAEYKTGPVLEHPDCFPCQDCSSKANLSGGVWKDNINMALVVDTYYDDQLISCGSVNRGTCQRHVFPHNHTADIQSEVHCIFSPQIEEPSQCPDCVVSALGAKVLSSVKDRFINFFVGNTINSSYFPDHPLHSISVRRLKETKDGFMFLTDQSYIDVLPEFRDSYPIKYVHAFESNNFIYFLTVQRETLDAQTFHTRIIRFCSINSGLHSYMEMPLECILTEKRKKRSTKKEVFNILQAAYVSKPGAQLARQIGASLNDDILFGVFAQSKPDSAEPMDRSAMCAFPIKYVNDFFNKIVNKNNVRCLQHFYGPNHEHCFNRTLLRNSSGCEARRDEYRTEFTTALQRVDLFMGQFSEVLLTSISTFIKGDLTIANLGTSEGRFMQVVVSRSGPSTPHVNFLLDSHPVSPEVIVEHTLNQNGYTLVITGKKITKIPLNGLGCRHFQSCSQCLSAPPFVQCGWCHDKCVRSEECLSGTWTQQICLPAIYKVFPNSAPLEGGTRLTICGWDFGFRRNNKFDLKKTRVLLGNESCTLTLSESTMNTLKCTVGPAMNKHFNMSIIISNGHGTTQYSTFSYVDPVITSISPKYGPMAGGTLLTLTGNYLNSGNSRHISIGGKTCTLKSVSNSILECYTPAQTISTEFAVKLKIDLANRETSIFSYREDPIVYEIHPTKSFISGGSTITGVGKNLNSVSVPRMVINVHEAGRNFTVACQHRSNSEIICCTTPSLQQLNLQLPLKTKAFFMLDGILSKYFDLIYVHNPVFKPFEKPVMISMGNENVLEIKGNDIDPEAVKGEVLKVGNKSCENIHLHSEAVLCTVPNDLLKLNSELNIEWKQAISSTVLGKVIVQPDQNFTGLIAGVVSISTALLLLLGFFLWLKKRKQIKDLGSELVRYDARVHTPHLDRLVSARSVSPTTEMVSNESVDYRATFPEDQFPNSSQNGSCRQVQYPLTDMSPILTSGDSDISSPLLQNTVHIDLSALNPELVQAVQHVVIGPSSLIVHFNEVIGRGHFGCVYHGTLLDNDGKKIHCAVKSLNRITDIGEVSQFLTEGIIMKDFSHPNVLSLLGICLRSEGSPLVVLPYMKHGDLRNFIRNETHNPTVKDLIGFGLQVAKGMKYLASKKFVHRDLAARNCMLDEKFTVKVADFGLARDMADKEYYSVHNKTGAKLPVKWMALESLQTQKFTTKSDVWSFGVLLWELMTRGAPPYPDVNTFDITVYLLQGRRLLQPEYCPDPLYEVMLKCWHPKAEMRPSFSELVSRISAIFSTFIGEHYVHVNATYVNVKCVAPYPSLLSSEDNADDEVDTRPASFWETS

Sequence of Dual specificity mitogen-activated protein kinase kinase 2 (Homo sapiens) (P36507 whole entry): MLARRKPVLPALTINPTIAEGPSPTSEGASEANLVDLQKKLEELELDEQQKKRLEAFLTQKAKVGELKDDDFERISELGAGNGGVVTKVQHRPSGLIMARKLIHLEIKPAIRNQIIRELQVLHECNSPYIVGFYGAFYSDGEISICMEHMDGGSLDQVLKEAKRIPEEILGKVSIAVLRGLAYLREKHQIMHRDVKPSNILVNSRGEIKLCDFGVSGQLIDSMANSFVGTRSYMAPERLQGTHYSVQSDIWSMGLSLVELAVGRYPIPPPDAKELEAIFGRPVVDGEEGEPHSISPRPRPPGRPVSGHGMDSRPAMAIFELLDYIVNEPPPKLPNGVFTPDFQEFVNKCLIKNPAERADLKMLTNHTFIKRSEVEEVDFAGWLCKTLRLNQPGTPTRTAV
Sequence of Serine/threonine-protein kinase PAK 4 (Homo sapiens) (O96013 whole entry, looked up): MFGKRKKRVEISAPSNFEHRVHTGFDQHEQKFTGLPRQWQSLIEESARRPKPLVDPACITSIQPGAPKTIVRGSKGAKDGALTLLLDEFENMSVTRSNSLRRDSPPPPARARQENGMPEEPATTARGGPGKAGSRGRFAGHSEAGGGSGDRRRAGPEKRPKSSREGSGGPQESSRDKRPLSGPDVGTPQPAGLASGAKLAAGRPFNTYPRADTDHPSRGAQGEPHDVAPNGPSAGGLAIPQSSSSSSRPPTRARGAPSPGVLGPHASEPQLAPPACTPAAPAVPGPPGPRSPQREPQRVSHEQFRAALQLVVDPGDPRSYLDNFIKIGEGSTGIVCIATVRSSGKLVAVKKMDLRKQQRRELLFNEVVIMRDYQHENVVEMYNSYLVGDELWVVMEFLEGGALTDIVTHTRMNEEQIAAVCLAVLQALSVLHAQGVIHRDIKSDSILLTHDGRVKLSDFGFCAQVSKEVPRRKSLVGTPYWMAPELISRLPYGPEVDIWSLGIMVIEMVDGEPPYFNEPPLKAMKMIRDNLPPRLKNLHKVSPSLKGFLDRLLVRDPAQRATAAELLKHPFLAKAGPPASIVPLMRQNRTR
Sequence of Macrophage colony-stimulating factor 1 receptor (Homo sapiens) (P07333 whole entry): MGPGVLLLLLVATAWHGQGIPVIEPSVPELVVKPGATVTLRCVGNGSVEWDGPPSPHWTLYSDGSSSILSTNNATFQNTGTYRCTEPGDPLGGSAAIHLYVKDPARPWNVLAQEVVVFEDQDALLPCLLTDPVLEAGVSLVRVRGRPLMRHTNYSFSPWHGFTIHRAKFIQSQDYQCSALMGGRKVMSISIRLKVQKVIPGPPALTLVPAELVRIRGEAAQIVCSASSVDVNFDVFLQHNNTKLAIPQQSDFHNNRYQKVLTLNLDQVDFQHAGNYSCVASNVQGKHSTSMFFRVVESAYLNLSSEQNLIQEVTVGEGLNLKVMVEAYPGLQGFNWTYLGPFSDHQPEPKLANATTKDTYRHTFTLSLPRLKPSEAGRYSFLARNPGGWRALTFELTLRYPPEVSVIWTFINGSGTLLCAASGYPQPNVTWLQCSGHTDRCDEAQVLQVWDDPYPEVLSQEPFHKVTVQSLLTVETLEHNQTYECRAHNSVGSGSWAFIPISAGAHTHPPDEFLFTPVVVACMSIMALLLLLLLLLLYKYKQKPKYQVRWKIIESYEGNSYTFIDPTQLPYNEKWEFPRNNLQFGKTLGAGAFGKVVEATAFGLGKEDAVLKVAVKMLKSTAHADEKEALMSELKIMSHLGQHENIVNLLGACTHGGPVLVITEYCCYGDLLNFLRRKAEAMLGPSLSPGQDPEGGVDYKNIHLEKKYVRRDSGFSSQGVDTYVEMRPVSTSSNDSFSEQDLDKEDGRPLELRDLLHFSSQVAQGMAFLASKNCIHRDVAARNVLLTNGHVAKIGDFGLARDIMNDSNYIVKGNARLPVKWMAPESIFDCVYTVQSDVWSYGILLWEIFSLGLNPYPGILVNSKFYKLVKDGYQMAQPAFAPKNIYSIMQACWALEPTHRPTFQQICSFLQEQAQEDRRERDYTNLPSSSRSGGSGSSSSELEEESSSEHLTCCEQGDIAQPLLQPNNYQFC
Sequence of Wee1-like protein kinase (Homo sapiens) (P30291 whole entry, looked up): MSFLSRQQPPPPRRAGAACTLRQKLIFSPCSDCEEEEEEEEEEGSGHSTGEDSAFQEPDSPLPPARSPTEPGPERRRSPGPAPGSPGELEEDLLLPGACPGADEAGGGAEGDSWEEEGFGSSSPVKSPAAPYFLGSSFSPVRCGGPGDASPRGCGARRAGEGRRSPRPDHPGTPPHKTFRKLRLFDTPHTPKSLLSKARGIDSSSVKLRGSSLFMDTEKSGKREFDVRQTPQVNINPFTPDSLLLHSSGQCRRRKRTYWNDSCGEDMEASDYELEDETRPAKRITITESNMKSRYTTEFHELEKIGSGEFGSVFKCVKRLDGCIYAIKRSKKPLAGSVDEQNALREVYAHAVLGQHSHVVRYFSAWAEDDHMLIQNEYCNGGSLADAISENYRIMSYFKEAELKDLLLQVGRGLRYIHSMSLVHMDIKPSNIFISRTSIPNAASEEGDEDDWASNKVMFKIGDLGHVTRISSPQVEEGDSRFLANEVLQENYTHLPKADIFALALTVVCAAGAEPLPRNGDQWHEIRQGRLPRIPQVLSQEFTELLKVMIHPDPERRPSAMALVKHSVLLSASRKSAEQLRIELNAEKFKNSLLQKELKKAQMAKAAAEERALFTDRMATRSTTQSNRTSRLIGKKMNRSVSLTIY
Sequence of Ephrin type-A receptor 4 (Homo sapiens) (P54764 whole entry): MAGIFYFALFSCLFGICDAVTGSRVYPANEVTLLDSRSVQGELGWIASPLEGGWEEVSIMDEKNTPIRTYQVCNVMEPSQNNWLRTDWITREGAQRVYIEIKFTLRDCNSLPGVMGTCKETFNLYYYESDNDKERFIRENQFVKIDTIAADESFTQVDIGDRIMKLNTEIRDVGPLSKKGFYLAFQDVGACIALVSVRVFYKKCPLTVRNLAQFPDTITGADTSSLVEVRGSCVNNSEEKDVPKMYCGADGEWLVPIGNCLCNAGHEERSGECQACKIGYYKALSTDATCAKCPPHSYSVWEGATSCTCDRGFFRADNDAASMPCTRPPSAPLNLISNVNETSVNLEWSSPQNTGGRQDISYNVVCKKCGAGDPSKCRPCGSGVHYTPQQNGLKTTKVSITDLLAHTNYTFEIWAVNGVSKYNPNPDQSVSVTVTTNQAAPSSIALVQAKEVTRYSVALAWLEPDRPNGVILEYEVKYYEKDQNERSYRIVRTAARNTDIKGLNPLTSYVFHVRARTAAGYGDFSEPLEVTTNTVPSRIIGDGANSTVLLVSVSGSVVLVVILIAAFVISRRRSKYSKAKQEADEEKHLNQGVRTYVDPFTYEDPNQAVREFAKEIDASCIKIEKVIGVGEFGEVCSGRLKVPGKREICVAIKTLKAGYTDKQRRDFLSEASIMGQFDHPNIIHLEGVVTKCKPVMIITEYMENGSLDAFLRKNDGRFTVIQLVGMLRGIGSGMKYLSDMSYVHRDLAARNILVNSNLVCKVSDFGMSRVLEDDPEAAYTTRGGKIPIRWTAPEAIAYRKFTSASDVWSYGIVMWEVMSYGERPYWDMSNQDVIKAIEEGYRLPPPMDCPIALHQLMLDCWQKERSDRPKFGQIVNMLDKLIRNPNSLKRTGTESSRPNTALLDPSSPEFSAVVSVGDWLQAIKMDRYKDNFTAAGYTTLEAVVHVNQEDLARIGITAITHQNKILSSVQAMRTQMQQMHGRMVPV

O=C1c2ccc(Nc3ccc(F)cc3F)cc2CCc2ccc(OC[C@H](O)CO)cc21 [Skepinone-L]
inactive: % Residual activity with Skepinone-L [1] 83% | % Residual activity with Skepinone-L [2] 95% | % Residual activity with Skepinone-L [3] 102% | % Residual activity with Skepinone-L [4] 99% | inhibition [5] 10.8% | inhibition [6] -3.22% | % Residual activity with Skepinone-L [7] 108% | % Residual activity with Skepinone-L [8] 107% | inhibition [9] 13.8% | % Residual activity with Skepinone-L [10] 91% | % Residual activity with Skepinone-L [11] 69% | % Residual activity with Skepinone-L [12] 91% | % Residual activity with Skepinone-L [13] 3% | % Residual activity with Skepinone-L [14] 88% | % Residual activity with Skepinone-L [15] 115% | % Residual activity with Skepinone-L [16] 88% | inhibition [17] 10.9% | % Residual activity with Skepinone-L [18] 105% | % Residual activity with Skepinone-L [19] 93% | % Residual activity with Skepinone-L [20] 104% | % Residual activity with Skepinone-L [21] 89% | % Residual activity with Skepinone-L [22] 79% | % Residual activity with Skepinone-L [23] 97% | % Residual activity with Skepinone-L [24] 81% | inhibition [25] 20.7% | % Residual activity with Skepinone-L [26] 78% | inhibition [27] 15.2% | % Residual activity with Skepinone-L [28] 86% | % Residual activity with Skepinone-L [29] 101% | % Residual activity with Skepinone-L [30] 124% | % Residual activity with Skepinone-L [31] 89% | % Residual activity with Skepinone-L [32] 96% | % Residual activity with Skepinone-L [33] 84% | % Residual activity with Skepinone-L [34] 79% | % Residual activity with Skepinone-L [35] 100% | % Residual activity with Skepinone-L [36] 94% | % Residual activity with Skepinone-L [37] 74% | % Residual activity with Skepinone-L [38] 93% | % Residual activity with Skepinone-L [39] 106% | % Residual activity with Skepinone-L [40] 100% | % Residual activity with Skepinone-L [41] 97% | % Residual activity with Skepinone-L [42] 88% | % Residual activity with Skepinone-L [43] 86% | % Residual activity with Skepinone-L [44] 79% | % Residual activity with Skepinone-L [45] 145% | inhibition [46] 11.2% | % Residual activity with Skepinone-L [47] 97% | % Residual activity with Skepinone-L [48] 103% | % Residual activity with Skepinone-L [49] 91%
